Results: article PMC8214221, “Sequence determinants in the cathelicidin LL-37 that promote inflammation via presentation of RNA to scavenger receptors” (The Journal of Biological Chemistry, 2021)
Residues, ends and D or L forms follow the SMILES beside them.

How the values were obtained:
[1] = system: NHEKs, IL-6 secretion in response to U1 dsRNA; experiment: IL-6 secretion ELISA in NHEKs; assay type: cell-based, human; conditions: U1 dsRNA 2.5 μg/ml + peptide 2 μM, 18 h, n = 3
Experimental: Protein levels of human IL-6 were analyzed from cell supernatant with ELISA (n = 3). Corresponding MIC values of LL-34 peptides L1A–R34A against Staphylococcus aureus USA300 are shown in the heat map. B, human dermal endothelial cells (HDMECs) were treated with either U1 dsRNA (2.5 μg/ml) or a combination of U1 dsRNA (2.5 μg/ml) and LL-34 peptides (Pep 1–Pep 34 and Pep–parent LL-34) at 2 μM for 18 h. IL-6 ELISA results are shown (n = 3). Green bars denote loss of IL-6 protein secretion compared with parent control shown in red. C, helical wheel plot for LL-34. Amino acids with green circles denote specific residues where replacement with an alanine caused the loss of IL-6 secretion compared with parent LL-34 peptide in NHEKs cotreated with U1 dsRNA. D, in the helical wheel plot for LL-34, circled green amino acids indicate that a substitution caused a loss of vetting in HDMEC. E–H, NHEKs were treated with LL-34-parent peptide (LL-34-P), LL-34-F5A, LL-34-I24A, LL-34-F27A, and LL-34-L31A at 2 μM, either individually or in combination with U1 dsRNA (2.5 μg/ml) for 8 h. Gene expression of IL-6, IFNB1, TSLP, and CXCL10 was assessed with qRT-PCR. GAPDH was used as a reference gene (n = 3) (∗p < 0.05; ∗∗∗∗p < 0.0001). One way-ANOVA was used. IL-6, interleukin 6; LL-34, 34-amino acid peptide; MIC, minimum inhibitory concentration, ns, not significant.
We hypothesized that sequential replacement of each amino acid in LL-34 peptide with a neutral amino acid alanine might reveal the amino acid residues critical for its ability to induce inflammation in response to U1 dsRNA. First, we treated NHEKs and human dermal microvascular endothelial cells (HDMECs) with LL-34 parent peptide and each of the 34 mutants at 2 μM for 18 h and measured the secretion of interleukin 6 (IL-6) in the supernatant by ELISA (Fig. S1, A and B). […] We then treated both NHEKs and HDMECs with a combination of U1 dsRNA (2.5 μg/ml) and the LL-34 parent/mutant peptides at 2 μM for 18 h and measured IL-6 secretion (Fig. 1, A–C). […] A similar pattern of IL-6 release was observed when HDMECs were treated with the peptide library and U1 dsRNA (Fig. 1B).
Cell culture supernatant was frozen at −80 °C until use for analysis. ELISA was performed with sandwich ELISA kits (R&D Systems) and quantified on a Spectramax Absorbance reader (Molecular Biosystems). Data were analyzed with GraphPad.

[2] = system: normal human epidermal keratinocytes (NHEKs); experiment: LDH release cytotoxicity assay in keratinocytes; assay type: cell-based; conditions: minimal concentration giving 50% LDH release by NHEKs
Outline: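 Normal human epidermal keratinocytes were exposed to LL-34 parent and alanine-substituted peptides. Cytotoxicity was read as LDH release in fresh culture supernatants after treatment, using a commercial kit, and reported as the minimal concentration showing toxicity.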

Row | Compound | IL-6 protein secretion, cotreatment with U1 dsRNA, vs U1 dsRNA + LL-34 parent [1] | Minimal cytotoxic concentration in NHEK (LD50) [2]
1 | CC[C@H](C)[C@H](NC(=O)[C@H](CCCCN)NC(=O)[C@H](CCC(=O)O)NC(=O)[C@H](CCCCN)NC(=O)[C@H](CO)NC(=O)[C@H](CCCCN)NC(=O)[C@H](CCCNC(=N)N)NC(=O)[C@H](C)NC(=O)[C@H](Cc1ccccc1)NC(=O)[C@H](CC(=O)O)NC(=O)CNC(=O)[C@H](CC(C)C)NC(=O)[C@@H](N)CC(C)C)C(=O)NCC(=O)N[C@@H](CCCCN)C(=O)N[C@@H](CCC(=O)O)C(=O)N[C@@H](Cc1ccccc1)C(=O)N[C@@H](CCCCN)C(=O)N[C@@H](CCCNC(=N)N)C(=O)N[C@H](C(=O)N[C@H](C(=O)N[C@@H](CCC(N)=O)C(=O)N[C@@H](CCCNC(=N)N)C(=O)N[C@H](C(=O)N[C@@H](CCCCN)C(=O)N[C@@H](CC(=O)O)C(=O)N[C@@H](Cc1ccccc1)C(=O)N[C@@H](CC(C)C)C(=O)N[C@@H](CCCNC(=N)N)C(=O)N[C@@H](CC(N)=O)C(=O)N[C@@H](CC(C)C)C(=O)N[C@H](C(=O)N1CCC[C@H]1C(=O)N[C@@H](CCCNC(=N)N)C(=O)O)C(C)C)[C@@H](C)CC)C(C)C)[C@@H](C)CC [LL-34—F6A] (H-LLGDFARKSKEKIGKEFKRIVQRIKDFLRNLVPR-OH) | reduced secretion of IL-6 protein | 5 µM
2 | CC[C@H](C)[C@H](NC(=O)[C@H](CCCCN)NC(=O)[C@H](CCC(=O)O)NC(=O)[C@H](CCCCN)NC(=O)[C@H](CO)NC(=O)[C@H](CCCCN)NC(=O)[C@H](CCCNC(=N)N)NC(=O)[C@H](Cc1ccccc1)NC(=O)[C@H](Cc1ccccc1)NC(=O)[C@H](CC(=O)O)NC(=O)CNC(=O)[C@H](CC(C)C)NC(=O)[C@@H](N)CC(C)C)C(=O)NCC(=O)N[C@@H](CCCCN)C(=O)N[C@@H](CCC(=O)O)C(=O)N[C@@H](C)C(=O)N[C@@H](CCCCN)C(=O)N[C@@H](CCCNC(=N)N)C(=O)N[C@H](C(=O)N[C@H](C(=O)N[C@@H](CCC(N)=O)C(=O)N[C@@H](CCCNC(=N)N)C(=O)N[C@H](C(=O)N[C@@H](CCCCN)C(=O)N[C@@H](CC(=O)O)C(=O)N[C@@H](Cc1ccccc1)C(=O)N[C@@H](CC(C)C)C(=O)N[C@@H](CCCNC(=N)N)C(=O)N[C@@H](CC(N)=O)C(=O)N[C@@H](CC(C)C)C(=O)N[C@H](C(=O)N1CCC[C@H]1C(=O)N[C@@H](CCCNC(=N)N)C(=O)O)C(C)C)[C@@H](C)CC)C(C)C)[C@@H](C)CC [LL-34—F17A] (H-LLGDFFRKSKEKIGKEAKRIVQRIKDFLRNLVPR-OH) | reduced secretion of IL-6 protein | 5 µM
3 | CC[C@H](C)[C@H](NC(=O)[C@H](CCCCN)NC(=O)[C@H](CCC(=O)O)NC(=O)[C@H](CCCCN)NC(=O)[C@H](CO)NC(=O)[C@H](CCCCN)NC(=O)[C@H](CCCNC(=N)N)NC(=O)[C@H](Cc1ccccc1)NC(=O)[C@H](Cc1ccccc1)NC(=O)[C@H](CC(=O)O)NC(=O)CNC(=O)[C@H](CC(C)C)NC(=O)[C@@H](N)CC(C)C)C(=O)NCC(=O)N[C@@H](CCCCN)C(=O)N[C@@H](CCC(=O)O)C(=O)N[C@@H](Cc1ccccc1)C(=O)N[C@@H](CCCCN)C(=O)N[C@@H](CCCNC(=N)N)C(=O)N[C@@H](C)C(=O)N[C@H](C(=O)N[C@@H](CCC(N)=O)C(=O)N[C@@H](CCCNC(=N)N)C(=O)N[C@H](C(=O)N[C@@H](CCCCN)C(=O)N[C@@H](CC(=O)O)C(=O)N[C@@H](Cc1ccccc1)C(=O)N[C@@H](CC(C)C)C(=O)N[C@@H](CCCNC(=N)N)C(=O)N[C@@H](CC(N)=O)C(=O)N[C@@H](CC(C)C)C(=O)N[C@H](C(=O)N1CCC[C@H]1C(=O)N[C@@H](CCCNC(=N)N)C(=O)O)C(C)C)[C@@H](C)CC)C(C)C [LL-34—I20A] (H-LLGDFFRKSKEKIGKEFKRAVQRIKDFLRNLVPR-OH) | reduced secretion of IL-6 protein | 5 µM
4 | CC[C@H](C)[C@H](NC(=O)[C@H](C)NC(=O)[C@H](CCC(N)=O)NC(=O)[C@@H](NC(=O)[C@@H](NC(=O)[C@H](CCCNC(=N)N)NC(=O)[C@H](CCCCN)NC(=O)[C@H](Cc1ccccc1)NC(=O)[C@H](CCC(=O)O)NC(=O)[C@H](CCCCN)NC(=O)CNC(=O)[C@@H](NC(=O)[C@H](CCCCN)NC(=O)[C@H](CCC(=O)O)NC(=O)[C@H](CCCCN)NC(=O)[C@H](CO)NC(=O)[C@H](CCCCN)NC(=O)[C@H](CCCNC(=N)N)NC(=O)[C@H](Cc1ccccc1)NC(=O)[C@H](Cc1ccccc1)NC(=O)[C@H](CC(=O)O)NC(=O)CNC(=O)[C@H](CC(C)C)NC(=O)[C@@H](N)CC(C)C)[C@@H](C)CC)[C@@H](C)CC)C(C)C)C(=O)N[C@@H](CCCCN)C(=O)N[C@@H](CC(=O)O)C(=O)N[C@@H](Cc1ccccc1)C(=O)N[C@@H](CC(C)C)C(=O)N[C@@H](CCCNC(=N)N)C(=O)N[C@@H](CC(N)=O)C(=O)N[C@@H](CC(C)C)C(=O)N[C@H](C(=O)N1CCC[C@H]1C(=O)N[C@@H](CCCNC(=N)N)C(=O)O)C(C)C [LL-34—R23A] (H-LLGDFFRKSKEKIGKEFKRIVQAIKDFLRNLVPR-OH) | reduced secretion of IL-6 protein | 10 µM
5 | CC[C@H](C)[C@H](NC(=O)[C@H](CCCCN)NC(=O)[C@H](CCC(=O)O)NC(=O)[C@H](CCCCN)NC(=O)[C@H](CO)NC(=O)[C@H](CCCCN)NC(=O)[C@H](CCCNC(=N)N)NC(=O)[C@H](Cc1ccccc1)NC(=O)[C@H](Cc1ccccc1)NC(=O)[C@H](CC(=O)O)NC(=O)CNC(=O)[C@H](CC(C)C)NC(=O)[C@@H](N)CC(C)C)C(=O)NCC(=O)N[C@@H](CCCCN)C(=O)N[C@@H](CCC(=O)O)C(=O)N[C@@H](Cc1ccccc1)C(=O)N[C@@H](CCCCN)C(=O)N[C@@H](CCCNC(=N)N)C(=O)N[C@H](C(=O)N[C@H](C(=O)N[C@@H](CCC(N)=O)C(=O)N[C@@H](CCCNC(=N)N)C(=O)N[C@H](C(=O)N[C@@H](CCCCN)C(=O)N[C@@H](CC(=O)O)C(=O)N[C@@H](Cc1ccccc1)C(=O)N[C@@H](CC(C)C)C(=O)N[C@@H](CCCNC(=N)N)C(=O)N[C@@H](CC(N)=O)C(=O)N[C@@H](CC(C)C)C(=O)N[C@@H](C)C(=O)N1CCC[C@H]1C(=O)N[C@@H](CCCNC(=N)N)C(=O)O)[C@@H](C)CC)C(C)C)[C@@H](C)CC [LL-34—V32A] (H-LLGDFFRKSKEKIGKEFKRIVQRIKDFLRNLAPR-OH) | reduced secretion of IL-6 protein | 10 µM
